Here are results for one compound from article PMC6832219, “Synthesis of Novel Baicalein Amino Acid Derivatives and Biological Evaluation as Neuroprotective Agents” (Molecules, 2019).

Holding throughout (assay type): cell-based
The test system of data set [1] is H9C2 cells. The experiment in a line: Toxicity on normal H9C2 cells (MTT assay). For orientation: Formazan colour is commonly taken as a measure of viable cells.
Data set [2] deals with injured SH-SY5Y cells. The data set can be described thus: Morphological detection of apoptosis using Giemsa staining. The settings on record: 6.25, 12.5, 25 μM, 72 h. As to the method: SH-SY5Y cells in the logarithmic growth phase were seeded in 12-well plates (1.2 × 10^4 cells/well). After incubation for 24 h at 37 °C with 5% CO2, various concentrations ([…] concentrations) of compound 8 were added to the cultures, and the plate was incubated for a further 72 h. Then, we discarded the cell culture fluid, washed twice with phosphate-buffered saline (PBS), and fixed the cells with cold methanol. The SH-SY5Y cells were stained with 6% Giemsa solution for 5 min, washed with water, and dried. The cell morphological changes were observed under an inverted microscope.
Figure 2 Morphological detection of apoptosis using Giemsa staining (200×) on injured SH-SY5Y cells treated with compound 8: (a) control group, (b) injury group, (c) 6.25 μM, (d) 12.5 μM, and (e) 25 μM.

Data set [3] has as its system injured SH-SY5Y cells. The experiment in a line: Morphological detection of apoptosis using DAPI staining. The settings on record: 6.25, 12.5, and 25 μM, 72 h. The protocol: To further study the mechanism of growth inhibition of compound 8 on injured SH-SY5Y cells, DAPI staining was performed. Injured SH-SY5Y cells were treated with compound 8 at […] concentrations for 72 h. […] When the concentration of the drug increased, the shape of the cells became regular.
SH-SY5Y cells in logarithmic growth phase were seeded in 12-well plates (2.4 × 10^4 cells/well). After incubation for 24 h at 37 °C in a humidified atmosphere with 5% CO2, various concentrations of compound 8 was added to the cultures, and the plate was incubated for further 72 h. After discarding the cell culture medium, washing twice with PBS, and fixing with 4% paraformaldehyde for 10 min, 4′,6-diamidino-2-phenylindole (DAPI, 1 mg/mL, Molecular Probes/Invitrogen Life Technologies, Carlsbad, CA, USA), staining was performed for 5 min in the dark, and nuclear fragments were observed under fluorescence microscope.
Figure 3 Morphological detection of apoptosis using 4′,6-diamidino-2-phenylindole (DAPI) staining (200×) on injured SH-SY5Y cells treated with compound 8, (a) control group, (b) injury group, (c) 6.25 μM, (d) 12.5 μM, and (e) 25 μM.

Data set [4] deals with H9C2 cells. The data set can be described thus: Toxicity on normal H9C2 cells (MTT assay). To be noted: read-out: Survival Rate (%).

A value given as a limit tells only on which side of the number the result lay.

In general, IC50 refers to the concentration that inhibits the measured activity by half. Low readings indicate greater potency, high ones weaker potency. `O=C(NC(Cc1ccccc1)C(=O)Oc1c(O)cc2oc(-c3ccccc3)cc(=O)c2c1O)OCc1ccccc1` (stereo not drawn) [Compound 8, 5,7-dihydroxy-4-oxo-2-phenyl-4H-chromen-6-yl 2-{[(benzyloxy)carbonyl]amino}-3-phenyl-proppanpate]: the viability at 6.25 µM in the data set with H9C2 cells [1] (6.25 µM, H9C2 cells, MTT, read-out: Survival Rate (%)) is 195%. Further, the viability at 12.5 µM in the data set on H9C2 cells [1] (12.5 µM, H9C2 cells, MTT, read-out: Survival Rate (%)) amounted to 182%. Besides, the viability at 25 µM with H9C2 cells [1] (25 µM, H9C2 cells, MTT, read-out: Survival Rate (%)) is 169%. The viability at 50 µM in the data set with H9C2 cells [1] (50 µM, H9C2 cells, MTT, read-out: Survival Rate (%)) worked out at 168%. The “Toxicity against H9C2 cells (in words)” value in the data set with H9C2 cells [1] (normal H9C2 cells) was “lower toxicity on the H9C2 cell line”. Also, the IC50 with H9C2 cells [1] (normal H9C2 cells, MTT) is more than 100 µM. The “Nuclear and cytoplasmic morphological changes (Giemsa staining)” value in the data set on injured SH-SY5Y cells [2] is reported as “alleviating morphological manifestations of cell damage”. In the data set on injured SH-SY5Y cells [3], the “Nuclear morphology / apoptosis (DAPI staining)” value was “protects injured SH-SY5Y cells from apoptosis”. Further, the viability at 100 µM with H9C2 cells [4] turned out to be 168%.
